Assay results published in patent US10221144B2, “Antibacterial compounds having broad spectrum of activity” (priority 2014, dated 2019).
Where a name gives a salt, the structure may show the parent alone. Read-outs that look alike come from different tables or passages of the source.

How the values were obtained:
Assay type in all cases: biochemical
E. coli Topoisomerase IV = biological target: T1, E. coli Topoisomerase IV (Escherichia coli, UniProt P0AFI2+P20083); assay: Topoisomerase IV decatenation assay (E. coli); settings: for inhibition at 50 µM: conc. 50 μM
T1 construct: purchased Inspiralis, UK
How it was run: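 Topo IV decatenation of kDNA (200 ng) with 0.5 U enzyme in HEPES-KOH pH 7.6 buffer containing 1 mM ATP and Mg acetate, 30 min at 37 °C. Single-concentration screen (200, 100 or 50 μM) in duplicate. Decatenated minicircles resolved on agarose, ethidium-stained band intensity expressed as % inhibition versus vehicle; IC50 from exponential-decay curve fit.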

[1] = biological target: T2, S. aureus Topoisomerase IV (Staphylococcus aureus, UniProt P0C1S7+P0C1U9); assay: Topoisomerase IV decatenation assay (S. aureus)
T2 construct: purchased Inspiralis, UK
Protocol: The above compounds were tested for the inhibition of the enzyme DNA gyrase in a gyrase supercoiling assay and for the inhibition of the enzyme topoisomerase IV in a decatenation assay, in both Gram positive and Gram negative bacteria, according to the following methods.
Both the assays were carried out according to a set-up method modified from the article to Blanche F, et al. “Differential Behaviors of Staphylococcus aureus and Escherichia coli Type II DNA Topoisomerases”, Antimicrob. Agents Chemother., 1996, Vol. 40, No. 12 p. 2714-2720.
The compounds were screened at single concentration (200, 100 or 50 μM), in duplicate.
S. aureus and E. coli Topoisomerase IV decatenation kits (Inspiralis, UK) were used. A master mix with a total volume sufficient for the number of reactions to perform was prepared with the following reagents: 5× assay buffer (50 mM HEPES-KOH (pH 7.6), 100 mM potassium glutamate, 10 mM magnesium acetate, 10 mM DTT, 1 mM ATP, 50 μg/ml albumin), kDNA substrate (200 ng/reaction), RNase-DNase free water. Aliquots of this mix were dispensed in each tube, then 10× compound stock solutions or vehicle control (DMSO), were added in each reaction tube.
Reaction was started with Topoisomerase IV enzyme (0.5 U/reaction) addition.
A sample added with an equal volume of dilution buffer was used as negative control (without enzyme).
The reaction tubes were gentle vortexed and incubated 30 minutes at 37° C. Each reaction was stopped by adding 30 μl of Stop Buffer and 30 μl of chloroform/isoamyl alcohol (24/1), briefly vortexed for 5-10 seconds and centrifuged at 20000×g for 2 minutes. Samples taken from the upper phase were loaded into 1% agarose gel and subjected to electrophoresis for 1 hour at 80V constant voltage in TAE (40 mM Tris-acetate, 2 mM EDTA).
Data acquisition and analysis. Due to the high molecular mass, kDNA could not enter an agarose gel under normal electrophoresis conditions, but remained in the wells. In the presence of Topo IV topoisomerase mini-circles (2.5 Kb) were released from kDNA by decatenation and were quickly and easily resolved in the gel at relatively high voltages.
Bands were visualized by ethidium bromide staining (dil 1:20000) for 30 minutes followed by destaining in distilled water for 10 minutes.
For single concentration screening assay, in order to evaluate the compounds activity on the enzymes, the bands of decatenated DNAs in the gel were photographed by a digital imaging system ImageQuant LAS 4000 (GE Healthcare) according to manufacturer's instructions.
The fluorescent intensity of each band was analyzed by ImageQuant TL software and it was expressed as volume (volume of the uncalibrated quantity of material in the image feature after subtraction of the background intensity by using rolling ball method).
Each band intensity was compared, as percentage, to vehicle sample band intensity, which served as positive control, on the same gel.
Inhibitory activity was expressed as percent of inhibition versus the positive control.
The supercoiled or decatenated DNA bands obtained as described in Example 1 were analysed as follows.
Bands were analyzed by gel documentation equipment (Syngene, Cambridge, UK) and quantitated using Syngene Gene Tools software. Raw gel data (fluorescent band volumes) collected from Syngene, GeneTools gel analysis software were converted to a percentage of the 100% control (the fully supercoiled or decatenated DNA band). […] The IC50 data were calculated by using the global curve fit non-linear regression tool by selecting the Single, 2 Parameter fit function from the Exponential Decay equation category.

E. coli DNA gyrase = biological target: T3, E. coli DNA gyrase (Escherichia coli, UniProt P0AES4+P0AES6); assay: DNA gyrase supercoiling assay (E. coli); settings: for inhibition at 50 µM: conc. 50 μM
T3 construct: purchased Inspiralis, UK
How it was run: (§1)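 Relaxed pBR322 (0.5 μg) supercoiled by E. coli (2 U) or S. aureus (1 U) gyrase, 30 min at 37° C; compounds at single 200, 100 or 50 μM, duplicate. Supercoiled band quantified on ethidium-stained agarose gel, expressed as % inhibition vs DMSO control; IC50 by two-parameter exponential decay fit.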

S. aureus DNA gyrase = biological target: T4, S. aureus DNA gyrase (Staphylococcus aureus, UniProt P0A0K8+P20831); assay: DNA gyrase supercoiling assay (S. aureus); settings: for inhibition at 50 µM: conc. 50 μM
T4 construct: purchased Inspiralis, UK
How it was run: as §1

[2] = E. coli, n/a = not active, read-out: % inhibition Topo IV
[3] = S. aureus, conc. 50 μM, n/a = not active, read-out: % inhibition Topo IV
[4] = S. aureus, concentration-response curve, eight half-log concentrations 0.1 to 300 μM, read-out: IC50 Topo IV

T1 sequence (P20083 whole entry): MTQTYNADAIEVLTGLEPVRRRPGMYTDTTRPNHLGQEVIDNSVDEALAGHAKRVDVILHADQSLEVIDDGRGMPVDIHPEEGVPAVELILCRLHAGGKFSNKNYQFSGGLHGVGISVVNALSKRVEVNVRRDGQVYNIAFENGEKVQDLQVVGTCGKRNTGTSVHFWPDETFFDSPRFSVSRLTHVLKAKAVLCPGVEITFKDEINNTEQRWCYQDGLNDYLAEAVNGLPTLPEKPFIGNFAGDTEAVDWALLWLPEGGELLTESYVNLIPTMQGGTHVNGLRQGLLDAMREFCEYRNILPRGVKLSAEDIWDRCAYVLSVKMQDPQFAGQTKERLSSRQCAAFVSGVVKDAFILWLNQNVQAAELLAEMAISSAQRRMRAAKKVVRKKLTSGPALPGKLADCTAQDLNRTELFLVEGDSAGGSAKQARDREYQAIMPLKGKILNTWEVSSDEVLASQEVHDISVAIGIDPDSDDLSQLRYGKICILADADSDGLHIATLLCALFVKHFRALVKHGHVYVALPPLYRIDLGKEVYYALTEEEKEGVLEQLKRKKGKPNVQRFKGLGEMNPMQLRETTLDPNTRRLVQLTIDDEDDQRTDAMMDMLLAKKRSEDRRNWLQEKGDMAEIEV
T1 sequence (P0AFI2 whole entry): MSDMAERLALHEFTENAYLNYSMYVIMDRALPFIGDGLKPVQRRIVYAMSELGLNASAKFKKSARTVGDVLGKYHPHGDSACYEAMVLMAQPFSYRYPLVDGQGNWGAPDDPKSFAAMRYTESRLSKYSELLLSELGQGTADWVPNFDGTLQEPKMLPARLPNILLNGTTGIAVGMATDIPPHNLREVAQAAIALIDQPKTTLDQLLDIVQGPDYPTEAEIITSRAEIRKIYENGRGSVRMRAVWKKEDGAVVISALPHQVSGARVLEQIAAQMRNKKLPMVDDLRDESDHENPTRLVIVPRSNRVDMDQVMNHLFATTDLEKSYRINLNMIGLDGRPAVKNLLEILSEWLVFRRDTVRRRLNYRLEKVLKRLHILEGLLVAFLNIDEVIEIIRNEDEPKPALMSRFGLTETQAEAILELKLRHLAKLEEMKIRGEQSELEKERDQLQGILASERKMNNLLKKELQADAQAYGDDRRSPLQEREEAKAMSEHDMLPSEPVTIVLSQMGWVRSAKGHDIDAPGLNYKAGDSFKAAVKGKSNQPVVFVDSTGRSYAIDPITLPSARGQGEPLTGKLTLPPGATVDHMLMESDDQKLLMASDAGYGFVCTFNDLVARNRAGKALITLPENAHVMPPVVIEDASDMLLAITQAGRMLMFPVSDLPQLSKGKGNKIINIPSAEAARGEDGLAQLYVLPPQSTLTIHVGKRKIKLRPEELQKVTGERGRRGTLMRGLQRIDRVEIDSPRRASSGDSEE
T2 sequence (P0C1S7 whole entry): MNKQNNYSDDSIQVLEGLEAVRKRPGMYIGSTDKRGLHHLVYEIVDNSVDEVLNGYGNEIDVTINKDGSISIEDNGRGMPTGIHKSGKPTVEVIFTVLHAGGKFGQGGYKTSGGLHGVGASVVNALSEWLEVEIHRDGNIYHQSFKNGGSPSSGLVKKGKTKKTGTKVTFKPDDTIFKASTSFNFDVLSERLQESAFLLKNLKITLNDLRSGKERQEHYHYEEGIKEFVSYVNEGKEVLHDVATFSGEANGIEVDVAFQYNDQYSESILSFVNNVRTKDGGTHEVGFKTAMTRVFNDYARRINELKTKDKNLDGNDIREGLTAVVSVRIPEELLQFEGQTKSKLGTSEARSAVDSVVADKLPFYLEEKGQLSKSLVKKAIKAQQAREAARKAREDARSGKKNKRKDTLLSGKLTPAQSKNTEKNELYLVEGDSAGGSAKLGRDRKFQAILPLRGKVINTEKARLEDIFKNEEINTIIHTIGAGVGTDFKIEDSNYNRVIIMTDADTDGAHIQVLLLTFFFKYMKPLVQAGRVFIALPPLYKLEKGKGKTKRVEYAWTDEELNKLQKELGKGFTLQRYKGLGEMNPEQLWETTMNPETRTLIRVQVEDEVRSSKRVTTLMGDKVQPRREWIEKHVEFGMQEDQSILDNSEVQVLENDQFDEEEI
T2 sequence (P0C1U9 whole entry): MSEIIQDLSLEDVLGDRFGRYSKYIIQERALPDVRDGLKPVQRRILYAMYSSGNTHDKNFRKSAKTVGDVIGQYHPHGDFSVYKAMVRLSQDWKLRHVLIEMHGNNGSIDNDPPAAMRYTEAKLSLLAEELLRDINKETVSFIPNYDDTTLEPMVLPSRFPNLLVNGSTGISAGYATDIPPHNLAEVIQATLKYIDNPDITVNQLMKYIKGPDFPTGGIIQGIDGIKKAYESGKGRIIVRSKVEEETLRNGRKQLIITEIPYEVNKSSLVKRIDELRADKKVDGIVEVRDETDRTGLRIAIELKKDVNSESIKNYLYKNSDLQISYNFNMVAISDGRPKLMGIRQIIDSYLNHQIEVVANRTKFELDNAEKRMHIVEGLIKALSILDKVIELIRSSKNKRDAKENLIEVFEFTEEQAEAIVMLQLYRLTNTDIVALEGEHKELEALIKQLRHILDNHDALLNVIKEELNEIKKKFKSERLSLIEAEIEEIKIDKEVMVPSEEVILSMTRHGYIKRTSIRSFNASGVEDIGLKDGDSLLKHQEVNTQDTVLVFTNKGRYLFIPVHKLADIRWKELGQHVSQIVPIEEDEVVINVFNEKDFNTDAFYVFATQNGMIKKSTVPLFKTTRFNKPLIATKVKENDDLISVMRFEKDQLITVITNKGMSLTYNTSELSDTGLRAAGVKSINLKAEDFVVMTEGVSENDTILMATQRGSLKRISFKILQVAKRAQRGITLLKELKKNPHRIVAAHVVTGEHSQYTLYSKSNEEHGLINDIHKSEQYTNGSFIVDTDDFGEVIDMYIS
T3 sequence (P0AES4 whole entry, one chain of several): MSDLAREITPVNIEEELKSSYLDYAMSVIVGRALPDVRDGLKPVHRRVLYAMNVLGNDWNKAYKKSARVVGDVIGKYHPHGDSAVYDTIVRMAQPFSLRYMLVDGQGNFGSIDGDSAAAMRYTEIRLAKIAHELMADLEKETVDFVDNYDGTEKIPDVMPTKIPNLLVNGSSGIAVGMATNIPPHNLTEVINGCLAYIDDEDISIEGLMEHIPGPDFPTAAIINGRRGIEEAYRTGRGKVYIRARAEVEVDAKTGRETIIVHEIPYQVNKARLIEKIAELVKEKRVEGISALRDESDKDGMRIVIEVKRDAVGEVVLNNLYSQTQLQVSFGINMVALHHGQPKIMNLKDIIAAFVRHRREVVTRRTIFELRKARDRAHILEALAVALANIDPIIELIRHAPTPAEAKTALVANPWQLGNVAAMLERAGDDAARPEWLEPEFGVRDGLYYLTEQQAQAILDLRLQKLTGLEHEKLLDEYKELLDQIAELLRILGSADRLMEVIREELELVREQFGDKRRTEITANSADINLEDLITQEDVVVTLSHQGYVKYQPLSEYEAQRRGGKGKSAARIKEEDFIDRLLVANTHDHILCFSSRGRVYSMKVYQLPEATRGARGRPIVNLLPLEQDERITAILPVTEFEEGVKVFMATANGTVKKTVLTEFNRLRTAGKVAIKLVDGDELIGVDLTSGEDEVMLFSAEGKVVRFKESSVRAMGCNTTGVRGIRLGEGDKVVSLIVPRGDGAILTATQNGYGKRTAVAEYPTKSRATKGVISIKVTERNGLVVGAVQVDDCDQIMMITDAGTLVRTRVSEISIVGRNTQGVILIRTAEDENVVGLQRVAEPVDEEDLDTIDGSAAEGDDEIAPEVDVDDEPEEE

Compound | IC50 (E. coli Topoisomerase IV) | inhibition at 50 µM (E. coli Topoisomerase IV; [2]) | IC50 [1] | inhibition at 50 µM [1, 3] | IC50 (E. coli DNA gyrase) | inhibition at 50 µM (E. coli DNA gyrase; E. coli, n/a = not active) | IC50 (S. aureus DNA gyrase) | inhibition at 50 µM (S. aureus DNA gyrase; S. aureus, n/a = not active) | IC50 [1, 4] | inhibition at 50 µM ([1]; read-out: % inhibition Topo IV) | inhibition at 200 µM (E. coli Topoisomerase IV; E. coli, conc. 200 μM, n/a = not active, read-out: % inhibition Topo IV) | inhibition at 200 µM ([1]; S. aureus, conc. 200 μM, n/a = not active, read-out: % inhibition Topo IV) | inhibition at 200 µM (E. coli DNA gyrase; E. coli, conc. 200 μM, n/a = not active) | inhibition at 200 µM (S. aureus DNA gyrase; S. aureus, conc. 200 μM, n/a = not active)
COc1ccc2ncc(F)c(N3CCC(NCc4cc5c([nH]4)c(=O)oc4ccc(F)cc45)CC3)c2n1 [Compound 192, 8-fluoro-2-({[1-(3-fluoro-6-methoxy-1,5-naphthyridin-4-yl)piperidin-4-yl]amino}methyl)[1]benzopyrano[3,4-b]pyrrol-4(3H)-one] | 130 nM | 37% | 100 nM | 76% | 80 nM | 70% | 17 nM | 88% |  |  |  |  |  | 
O=c1oc2ccccc2c2[nH]c(C(O)CN3CCN(c4nccc5ccc(F)cc45)CC3)nc12 (stereo not shown) [Compound 152, 2-{2-[4-(7-fluoroisoquinolin-1-yl)piperazin-1-yl]-1-hydroxyethyl}[1]benzopyrano[3,4-d]imidazol-4(1H)-one hydrochloride] | 850 nM | 100% |  |  | 660 nM | 88% | 310 nM | 100% | 530 nM | 88% |  |  |  | 
O=c1nc(NCC(O)CN2CCN(c3nccc4ncc(C(F)(F)F)cc34)CC2)c2cc(F)ccc2o1 (stereo not shown) [Compound 163, 6-fluoro-4-[(2-hydroxy-3-{4-[3-(trifluoromethyl)-1,6-naphthyridin-5-yl]piperazin-1-yl}propyl)amino]-2H-1,3-benzoxazin-2-one] | 9890 nM | 90% |  | 100% | 4400 nM | 80% | 82700 nM | 30% | 1220 nM |  |  |  |  | 
O=c1cc(NCCCN2CCN(c3nccc4ccccc34)CC2)c2ccccc2o1 [Compound 44, 4-({3-[4-(isoquinolin-1-yl)piperazin-1-yl]propyl}amino)-2H-chromen-2-one] | 10000 nM |  | 90000 nM |  | 500 nM |  | 14000 nM |  |  |  | 100% | 65% | 100% | 100%
CCOC(=O)C1CN(c2nccc3ccc(F)cc23)CCC1NCc1cc2c(=O)oc3ccccc3c2[nH]1 (racemic) [Compound 184, ethyl 1-(7-fluoroisoquinolin-1-yl)-4-{[(4-oxo-1,4-dihydro[1]benzopyrano[4,3-b]pyrrol-2-yl)methyl]amino}piperidine-3-carboxylate] |  | 58% |  |  |  | 68% |  | 83% |  | 69% |  |  |  | 
O=c1oc2ccc(F)cc2c2cc(CNC3CCN(c4nccc5ncccc45)CC3)[nH]c12 [Compound 187, 8-fluoro-2-({[1-(1,6-naphthyridin-5-yl)piperidin-4-yl]amino}methyl)[1]benzopyrano[3,4-b]pyrrol-4(3H)-one] | 1570 nM | 82% | 1370 nM | 95% | 190 nM | 79% | 160 nM | 95% |  |  |  |  |  | 
O=c1oc2ccccc2c2[nH]c(CNC3CCN(c4nccc5ccc(F)cc45)CC3)c(C(F)(F)F)c12 [Compound 153, 2-({[1-(7-fluoroisoquinolin-1-yl)piperidin-4-yl]amino}methyl)-3-(trifluoromethyl)[1]benzopyrano[4,3-b]pyrrol-4(1H)-one] | 1340 nM | 50% | 2300 nM | 61% | 1420 nM | 72% | 490 nM | 100% |  |  |  |  |  | 
